Source: patent publication US5183924A, “Derivatives of benzocycloalkenyldihydroxyalkanoic acids, processes of preparation and medications containing them” (Lipha, Lyonnaise Industrielle Pharmaceutique, priority 1989, dated 1993)

Experiments:
[1] = tested on: hepatic 14C-cholesterogenesis; assay: Test A: hepatic 14C-cholesterogenesis, in vivo, in the rat
Description: Test A: Measurement of hepatic ^14 C-cholesterogenesis, in vivo, in the rat according to the method described by Bucher et al., J Biol. Chem., 222, 1-15, 1956 and Alberts et al., Proc. Natl. Acad. Sci. USA, 77 (7), 3957-3961, 1980.

[2] = tested on: total cholesterolaemia; assay: Test B: total cholesterolaemia, in vivo, in the rat treated intravenously with triton WR 1339; conditions: iv
[3] = biological target: T1, TXA2 receptors (Cavia porcellus, UniProt A0A286Y4I8); assay: Test C: platelet aggregation induced by an agonist of TXA2 receptors (U 46619), in vitro, platelet-rich plasma; assay type: cell-based; conditions: guinea pig platelet-rich plasma, U 46619 20 nM, 37° C.
T1 construct: platelet-rich plasmas (PRP) are prepared by aortic punction of anaesthetized animals; endogenous in cells; host or cells: guinea pig platelets in platelet-rich plasma
T1 sequence (A0A286Y4I8 1-347): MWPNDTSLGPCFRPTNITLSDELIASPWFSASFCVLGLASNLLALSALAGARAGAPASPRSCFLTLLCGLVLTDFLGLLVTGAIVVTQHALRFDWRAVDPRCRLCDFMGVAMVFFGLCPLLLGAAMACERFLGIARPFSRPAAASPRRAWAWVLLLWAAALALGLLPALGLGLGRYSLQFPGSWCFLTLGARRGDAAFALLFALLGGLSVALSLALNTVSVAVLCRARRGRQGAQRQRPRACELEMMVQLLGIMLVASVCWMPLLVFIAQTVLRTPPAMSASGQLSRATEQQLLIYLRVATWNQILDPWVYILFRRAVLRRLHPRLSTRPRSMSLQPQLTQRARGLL
Procedure: Test C: Measurement of platelet aggregation induced by an agonist of TXA2 receptors, in the guinea pig in the following manner: platelet-rich plasmas (PRP) are prepared by aortic punction of anaesthetized animals; the blood (9 vol.) is collected onto a 106 mM solution of trisodium citrate (1 vol.) to prevent coagulation. The PRPs are isolated by slow centrifuging (10 min, 380 g), and left to incubate for at least 3 min (37° C., with slow stirring) in an aggregometer of the Chronolog-400 type. The platelet aggregation is induced by addition of a direct agonist of the TXA2 receptors, such as, for example, the compound known by the code name U 46619 (at a concentration of 20 nM) according to Malmstein, Life Sci., 18, 169-178, 1976; the compounds of the invention are tested "in vitro".

In the case of COC(=O)C[C@H](O)C[C@H](O)/C=C/C1=C(c2ccccc2)c2ccccc2CC1(C)C (relative stereo) [Compound No. 2, (+,-)Methyl 6E-erythro-7-(1,2-dihydro-2,2-dimethyl-4-phenyl-3-naphthyl)-3,5-dihydroxyhept-6-enoate], the ED50 [1] is reported as 0.6 mg/kg and the ED25 [2] is reported as 100 mg/kg.
Work on O=C(O)C[C@H](O)C[C@H](O)/C=C/C1=C(c2ccccc2)c2ccccc2SC12CCCC2 (relative stereo) [Compound No. 65, (+,-)Sodium 6E-erythro-3,5-dihydroxy-7-(4-phenyl-3-spiro(2,1'-cyclopentyl-2H-1-benzothiapyran))hept-6-enoate] yielded an ED50 [1] of 0.38 mg/kg and an ED25 [2] of 74 mg/kg.
Work on CCOC(=O)C[C@H](O)C[C@H](O)/C=C/C1=C(c2ccc(F)cc2)c2ccccc2OC12CCCC2 (relative stereo) [Compound No. 1, (+,-)Ethyl 6E-erythro-7-(4-(4-fluorophenyl)-3-spiro(2,1'-cyclopentyl-2H-1-benzopyran))-3,5-dihydroxyhepten-6-oate] yielded an ED50 [1] of 0.17 mg/kg, an ED25 [2] of 29 mg/kg and an IC50 [3] of 91 µM.
Work on CC[C@H](C)C(=O)O[C@H]1C[C@@H](C)C=C2C=C[C@H](C)[C@H](CC[C@@H]3C[C@@H](O)CC(=O)O3)[C@H]21 [Lovastatine, reference compound] yielded an ED50 [1] of 0.39 mg/kg and an ED25 [2] of 130 mg/kg.
With CCOC(=O)C[C@H](O)C[C@H](O)/C=C/C1=C(c2ccc(Cl)cc2)c2ccccc2OC12CCCC2 (relative stereo) [Compound No. 19, (+,-)Ethyl 6E-erythro-7-(4-(4-chlorophenyl)-3-spiro(2,1'-cyclopentyl-2H-1-benzopyran))-3,5-dihydroxyhept-6-enoate] the ED50 [1] was 0.09 mg/kg, the ED25 [2] was 110 mg/kg and the IC50 [3] was 28 µM.
